This is an account of results in a melting point compilation (Tetko et al.; mined from patent text by program, amines drawn as free bases though some values may be those of a salt).

Molecules are shown by their SMILES.

By melting point is commonly meant the temperature, or range, at which the solid turns liquid. Molecule `O=C(NCc1cccnc1)OCc1ccccc1` displayed a melting point of 73.6 to 77.1 °C.
As for `CC(=O)OCC(=O)C1CCC2C3CCC4CC(OS(=O)(=O)c5ccc(C)cc5)CCC4(C)C3C(=O)CC12C` (configuration not stated), the figure is 155 to 156 °C; as for `Cc1cccc(C)c1N1CC(C)N(c2c(C)cccc2C)C1=NC(=O)OCc1ccccc1` (configuration not stated), 74 to 75 °C; as for `O=C(O)CCNC(=O)CCC(=O)Nc1cccc2ccccc12`, 180 to 182 °C.
As for `COc1cc(-c2cnc3[nH]cc(C(=O)NCC(C)(C)CO)c3n2)cc(OC)c1OC`, the figure is 224 to 225 °C; as for `CCCCOc1nc(N)c2[nH]c(=O)n(CCCCN(CCN3CCCC3)S(=O)(=O)c3cccc(CC(=O)O)c3)c2n1`, 192 to 193 °C.
As for `COC(=O)[C@@H](CC(C)C)NC(=O)C[C@H]1O[C@H](c2cccc(OC)c2OC)c2cc(Cl)ccc2N(CC(CO)(OC)OC)C1=O`, the figure is 110 to 111 °C.
`CC(=O)Nc1c(I)c(C(=O)NC(CO)CO)c(I)c(C(=O)NC(CO)CO)c1I` registered a melting point above 270 °C.
The result for `Cc1cnc(NCCc2ccccn2)c(=O)n1NC(=O)CCc1cccc(Cl)c1` reads 201 to 207 °C; that for `C=CCn1c(C)nc2c3c(ccc21)[C@@H](OCCOC)[C@H](O)[C@@H](c1ccccc1)O3`, 79 °C.
In turn, `O=[N+]([O-])c1ccc(C=Cc2nc(Nc3ccc(O)cc3)c3ccccc3n2)o1` registered a melting point of 250 to 260 °C.
As for `Cn1c2ccccc2c2cc(CO)ccc21`, the figure is 96 °C; as for `CC(C)CN1C(=O)CC[C@H]1COC(c1ccccc1)(c1ccccc1)c1ccccc1`, 91 to 93 °C; as for `C[C@@H]1Cc2cc([N+](=O)[O-])sc2[C@H](C)N1CCNC(=O)c1ccc([N+](=O)[O-])cc1` (relative stereo), 155 to 156 °C.
`C[C@H]1C[C@@](O)(c2csc(S(=O)(=O)c3ccc4c(c3)CCC(=O)N4C)c2)CCO1` registered a melting point of 64 to 66 °C.
`Oc1ccc([C@H]2CC[C@H](NCC#Cc3ccccc3)CC2)cc1` yielded a melting point of 131 to 136 °C.
As for `CCOC(=O)CC1OC(=O)c2c(Oc3nc(OC)cc(OC)n3)cccc21` (configuration not stated), the figure is 150 to 152 °C.
`CCN(CC)CC(O)CONC(=O)NC(C)(C)C` (configuration not stated) registered a melting point of 58 to 61 °C.
In the case of `C[C@@H](n1ccn(-c2ccc(O)cc2)c1=O)[C@](O)(Cn1cncn1)c1ccc(F)cc1F`, the melting point was in the range of 93 to 103 °C.
As for `CN1CC=C(c2c[nH]c3ccc(NS(=O)(=O)c4cccc5ccccc45)cc23)CC1`, the figure is 244 to 245 °C.
Molecule `CC(C)(C)OC(=O)N1CCCC(CCN2C(=O)C3(COc4cc5c(cc43)OCO5)c3ccccc32)C1` (configuration not stated) yielded a melting point of 64 to 67 °C.
In turn, `CCOC(=O)c1c2ccc(Cl)cc2c(-c2ccccc2)n1CCOS(C)(=O)=O` returned a melting point of 125 to 127 °C.
The result for `Nc1nsc(Nc2c(Cl)cccc2Cl)n1` reads 178 to 179 °C; that for `CCCc1nn(-c2ccc(C(F)(F)F)cn2)cc1C=O`, 52 to 53 °C; that for `O=C(O)c1cn(C2COC2)c2c(F)c(N3CCNCC3)cc(F)c2c1=O`, above 300 °C.
`Cc1ccccc1C(=O)Nc1ccc(C(=O)N2Cc3ccccc3-c3ccccc32)cc1` registered a melting point of 190 to 194 °C.
`CCCCCCN1CCN(Cc2ccc(N)cc2)C(=O)C1=O` showed a melting point of 99 to 102 °C.
`Oc1c2c(nn1-c1ccc(F)cc1)CCc1cc(F)ccc1-2` displayed a melting point of 220 to 221 °C.
The molecule `COc1ccc(-c2nc(N3CCCC3)c3c(C)c(C#N)sc3n2)cc1` had a melting point of 176 to 178 °C.
As for `Cc1cccc(NC(=O)NC2CN(C(=O)C(C)(C)C)c3ccccc3N(CC(=O)N(C)C)C2=O)c1` (configuration not stated), the figure is 252 to 254 °C.
In turn, `CC(C)[C@@H](C(=O)N[C@@H](Cc1ccccc1)[C@@H](O)[C@H](O)[C@H](Cc1ccccc1)NC(=O)[C@H](C(C)C)N(C)C)N(C)C` displayed a melting point of 200 to 204 °C.
For `O=C(NCCO)c1cccc(-c2ccc3c(n2)N(c2ccc(Cl)cc2Cl)CC3)c1`, the melting point was 168 to 169 °C.
As for `CC(C)(C)OC(=O)N1CCCC1COC(=O)N1CCN(c2cc(N3CCCC3)nc(N3CCCC3)n2)CC1` (single isomer, unassigned; (-)), the figure is 147 °C; as for `COc1cc(C(=O)OC(C)C)cc(OC)c1Cc1cnc(N)nc1N`, 209 to 213 °C.
As for `CC(=O)OCC1CCCn2c(c(C3=C(c4cn(C)c5ccccc45)C(=O)OC3=O)c3ccccc32)C1` (configuration not stated), the melting point is 164 to 166 °C.
As for `Cc1cc(Br)cnc1CCCCNC1=NS(=O)(=O)c2ccccc21`, the figure is 232 to 244 °C.
The molecule `CCCc1nn(CC)c2c(=S)[nH]c(-c3ccccc3OCC)nc12` displayed a melting point of 130 to 131 °C.
As for `O=C(c1c[nH]c(=O)[nH]1)c1ccco1`, the melting point is 318 to 321 °C.
As for `CC(=NC(C#N)=C(N)C#N)c1ccco1`, the figure is 175 to 176 °C; as for `CC(=O)Oc1ccc(C(=O)O)cc1-c1ccccc1`, 185 to 187 °C.
As for `COc1ccc(Cc2nc(C(C)=O)c[nH]2)cc1`, the figure is 147 to 148 °C; as for `COC(=O)C1=Cc2cc(Br)ccc2NCC1`, 143 to 145 °C; as for `Nc1cccnc1Cc1ccccc1`, 84 to 86 °C.
The result for `COc1ccc2[nH]c(C(=O)N3CCc4cc(C(=O)NO)ccc4C3)cc2c1` reads 156 °C; that for `COC(=O)c1ccc(OC)c2c1CCO2`, 68 to 78 °C.
On to `CCOC(=O)c1ccc(OC(=O)CCCCC(=O)Oc2ccc(C(=O)OCC)cc2)cc1`, for which the melting point was in the range of 82 to 83 °C.
`N#Cc1c(N2CCCCC2)cc(-c2ccc(F)cc2)c2c1Cc1ccccc1-2` registered a melting point of 130 to 132 °C.
For the molecule `CC1(C)CC(=O)c2c(C3CCC3)sc(C#N)c2C1`, the melting point lay in the range of 65 to 68 °C.
Turning to `O=C1O[C@@H]2C[C@@]1(O)c1cc(Cc3ccccc3)sc1[C@H]2O`, the melting point fell in the range of 116 to 118 °C.
The result for `CCCC(Oc1cncc(Cl)c1)C(=O)O` (configuration not stated) reads 89 to 91 °C; that for `CCC(C)(C)c1ccc(OCCCNC(=O)c2cc(OCCS(=O)(=O)CC)c3ccccc3c2O)c(C(C)(C)CC)c1`, 155 to 157 °C.
The result for `Cc1noc(NS(=O)(=O)c2ccccc2-c2ccc(-c3ncco3)cc2CN(C)C(=O)Cc2ccccc2)c1C` reads 114 to 122 °C; that for `CCc1c(Sc2cc(Cl)cc(Cl)c2)c(CO)nn1CCO`, 89 to 90 °C.
In the case of `CC1(C)NCC(c2ccccc2)=NO1`, the melting point lay within 93 to 95 °C.
`Cc1ccccc1NC(=O)Nc1ccc(CC(=O)NC(CC(C)C)c2cc(C=CC(=O)O)on2)cc1` (configuration not stated) came in with a melting point of 136 to 138 °C.
In turn, `CC(=NOCCOc1ccc(CC2SC(=O)NC2=O)cc1)c1ccc(-c2ccc(C)cc2)cc1` (configuration not stated) came in with a melting point of 184 to 186 °C.
The result for `Cc1ncccc1-c1nc(C(F)(F)F)cn1-c1ccc(S(N)(=O)=O)cc1` reads 235 to 237 °C; that for `CCCN(CCC)c1c([N+](=O)[O-])cc(C)c(C(C)C)c1[N+](=O)[O-]`, 48.5 to 49 °C.
`CN1CCN(C2NC(=O)c3ccccc32)CC1` (configuration not stated): the melting point is 168 to 170 °C.
`CCCCS(=O)CCCNc1cc2oc(=O)[nH]c2cc1F` (configuration not stated) showed a melting point of 116 to 117 °C.
As for `Oc1nc2ccc(F)cc2n2c(C(F)(F)F)nnc12`, the figure is 298 to 302 °C; as for `N#CCC(O)(c1ccccc1)c1ccccc1`, 136 to 138 °C; as for `COC(=O)c1ccc2c(c1)c(Cc1ccc(C(=O)Cl)cc1OC)cn2C`, 147 to 149 °C.
As for `O=C(NCCC12CC3CC(CC(C3)C1)C2)c1ccccc1Cl`, the figure is 125 to 127 °C; as for `CCCCCCCCCC(=O)N(O)CCCCCC`, 37 °C.
`CN1CCSC1=NC(=Nc1ccccc1)N1CCCCC1` showed a melting point of 122 to 124 °C.
Molecule `CC(C)(C)c1onc(NS(=O)(=O)c2ccccc2)c1Br` gave a melting point of 139 to 141 °C.
For `CC(C)(C)[Si](C)(C)OCCn1nc(CO)cc1CO`, the melting point was 82 to 83 °C.
As for `N#Cc1c(N2CCN(C(=O)c3cccs3)CC2)c2ccccc2[nH]c1=O`, the melting point came to 264 °C.
The result for `O=C(Nc1cc(Cc2n[nH]c(=O)c3ccccc23)ccc1N1CCOCC1)c1cccc(CCl)c1` reads 117 to 122 °C; that for `Nc1c(C(=O)c2cc(-c3ccccc3)no2)[nH]c2cc(Cl)ccc12`, 241 to 242 °C; that for `COc1cc2c(cc1OC)-c1c(Cl)nc3ccccc3c1C2=O`, 132 to 133 °C.
In turn, `COC(=O)C1CCC2C3CCC4CC(OC(C)=O)CCC4(C)C3C(NC3CCCCC3)CC12C` (configuration not stated) returned a melting point of 126 to 128 °C.
Molecule `CNC(=O)c1cccc(-c2ccc3nnn(Cc4ccc5ncccc5c4)c3n2)c1` returned a melting point of 215 to 217 °C.
The result for `N#Cc1ccccc1C(=O)c1ccccc1O` reads 100 °C.
In the case of `CC(C)(C)OC(=O)c1nc(-c2ccccc2)[nH]c1-c1ccccn1`, the melting point fell in the range of 211 to 213 °C.
Molecule `O=C(O)c1cc(S(=O)(=O)Cl)cc2c1OCCO2` yielded a melting point of 210 to 215 °C.
For `Cc1cccc2c1OC(c1ccccc1)([N+](=O)[O-])C2` (configuration not stated), the melting point lay within 122 to 126 °C.
As for `O=C(c1ccc(Br)cc1)c1ccc(O)cc1F`, the figure is 62 to 63 °C; as for `Cc1cc(F)ccc1C(=Cc1nnnn1C)c1ccc(F)cc1C`, 120 to 125 °C; as for `CCOC(=O)c1cn(-c2ccc(F)cn2)c2nc(Cl)c(F)cc2c1=O`, 230 °C.
In turn, `CCC(CC)c1ccc(Cl)c2nc(Nc3c(C)cc(Br)cc3OC)n(C)c12` displayed a melting point of 218 to 220 °C.
`Nc1nc2c(ncn2OCC(O)CP(=O)(O)O)c(=O)[nH]1` (configuration not stated) yielded a melting point of 258 to 260 °C.
Regarding `O=C1OC(=Cc2ccc3ccccc3c2)C(=O)C(c2ccc(Cl)cc2)=C1O`, the melting point was in the range of 274 to 275 °C.
`CC(C)(C)OC(=O)NC1COCCCC=CC2CC2(C(=O)NS(=O)(=O)C2CC2)NC(=O)C2CC(OC(=O)c3ccccc3)CN2C1=O` (configuration not stated) gave a melting point of 135 to 137 °C.
Molecule `Cc1cc([N+](=O)[O-])ccc1OC12CC3CC(CC(C3)C1)C2` came in with a melting point of 89.5 to 91 °C.
The result for `CCOCc1nc2c(N)nc3ccccc3c2n1CCCNC(=O)OC(C)(C)C` reads 124 to 126 °C.
